In the assay the target is T1, human OX2 receptor (Homo sapiens, UniProt O43614).
T1 construct: expressed in transfected cells
T1 sequence (O43614 1-444): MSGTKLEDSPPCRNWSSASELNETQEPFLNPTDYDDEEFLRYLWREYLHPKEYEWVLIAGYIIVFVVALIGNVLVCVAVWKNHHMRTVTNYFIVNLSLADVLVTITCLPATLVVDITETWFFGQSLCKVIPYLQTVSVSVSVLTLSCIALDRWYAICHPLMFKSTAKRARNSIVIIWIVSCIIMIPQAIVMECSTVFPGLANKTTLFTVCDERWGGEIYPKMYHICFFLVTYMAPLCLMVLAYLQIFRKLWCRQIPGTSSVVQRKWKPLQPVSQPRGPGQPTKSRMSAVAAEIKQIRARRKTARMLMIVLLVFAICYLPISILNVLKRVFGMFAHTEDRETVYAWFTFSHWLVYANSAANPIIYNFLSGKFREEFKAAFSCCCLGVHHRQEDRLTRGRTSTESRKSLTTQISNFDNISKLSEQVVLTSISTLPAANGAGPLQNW
Put plainly: Measurement of orexin type 2 receptor agonist activity (calcium fluorescence, Fluo-4 AM, FDSS). The assay is classed as cell-based. As to conditions: compound at 3 μM; CHO cells forcibly expressing human OX2 receptor; DMSO = 0%, 10 nM orexin A (human) = 100%. The protocol: In order to obtain cell clones that stably express human orexin type 2 receptor, human orexin type 2 (residues 1-444, NCBI Reference Sequence: AK314279) was constructed in a pcDNA3.1 (+) vector (Invitrogen) to express in mammalian cells. This plasmid DNA was transfected into CHO-K1 cells by electroporation, and stable clones were obtained by limiting dilution using resistance to G418 as a selection marker.
CHO cells in which human OX2 receptor was forcibly expressed were seeded at 10,000 cells/well into a 384-well black transparent bottom plate (BD falcon), and were incubated at 37° C., 5% CO2 for 1 day after incubation at room temperature for 30 minutes. After removing the cell plate medium, assay buffer containing calcium indicator A (HBSS (Thermo Fisher Scientific), 20 mM HEPES (Thermo Fisher Scientific), 0.1% BSA (Sigma-Aldrich), 2.5 μg/mL Fluo-4 AM (Dojin Kagaku), 0.08% Pluronic F127 (Dojin Kagaku), 1.25 mM probenecid (Dojin Kagaku)) was added at 30 μL/well. After incubation in a 5% CO2 incubator at 37° C. for 30 minutes, it was incubated at room temperature for another 30 minutes. Add 10 μL/well of the test compound diluted with assay buffer B (HBSS, 20 mM HEPES, 0.1% BSA), and use FDSS uCELL (Hamamatsu Photonics) to measure the fluorescence value every 1 second for 1 minute, and then every 2 seconds for […]. It was measured for 1 minute and 40 seconds. The amount of fluorescence value when DMSO is added instead of the test compound is defined as 0%, and the amount of fluorescence value when orexin A (human) (Peptide Institute) with a final concentration of 10 nM is added is defined as 100%. The activity (%) of the test compound was calculated.

As to `Cc1cnc(C2(C)CC(N3C[C@@H](NS(C)(=O)=O)C(F)(F)C3)=NO2)c(-c2c(F)cc(F)cc2F)c1` (stereo partly drawn) [Example 10, N-[(3R)-4,4-difluoro-1-{5-methyl-5-[5-methyl-3-(2,4,6-trifluorophenyl)pyridin-2-yl]-4,5-dihydro-1,2-oxazol-3-yl}pyrrolidin-3-yl]methanesulfonamide], the “OX2R agonist activity (3 μM, %)” value is 102%. The result for `Cc1cn(-c2c(F)cccc2F)c(C2(C)CC(N3C[C@@H](NS(C)(=O)=O)C(F)(F)C3)=NO2)n1` (stereo partly drawn) [Example 12, N-[(3R)-1-{5-[1-(2,6-difluorophenyl)-4-methyl-1H-imidazol-2-yl]-5-methyl-4,5-dihydro-1,2-oxazol-3-yl}-4,4-difluoropyrrolidin-3-yl]methanesulfonamide] reads 71%. Under `CCS(=O)(=O)N[C@@H]1CN(C2=NOC(c3ncc(C)cc3-c3c(F)cc(F)cc3F)(C(F)F)C2)CC1(F)F` (stereo partly drawn) [Example 13, N-[(3R)-1-{5-(difluoromethyl)-5-[5-methyl-3-(2,4,6-trifluorophenyl)pyridin-2-yl]-4,5-dihydro-1,2-oxazol-3-yl}-4,4-difluoropyrrolidin-3-yl]ethanesulfonamide] stands 107%; under `Cc1cnc(C2(C(F)F)CC(N3C[C@@H](NS(C)(=O)=O)C(F)(F)C3)=NO2)c(-c2c(F)cc(F)cc2F)c1` (stereo partly drawn) [Example 14, N-[(3R)-1-{5-(difluoromethyl)-5-[5-methyl-3-(2,4,6-trifluorophenyl)pyridin-2-yl]-4,5-dihydro-1,2-oxazol-3-yl}-4,4-difluoropyrrolidin-3-yl]methanesulfonamide], 106%.

`CS(=O)(=O)N[C@@H]1CN(C2=NOC(CO)(c3ncc(F)cc3-c3c(F)cc(F)cc3F)C2)CC1(F)F` (stereo partly drawn) [Example 15, N-[(3R)-4,4-difluoro-1-{5-[5-fluoro-3-(2,4,6-trifluorophenyl)pyridin-2-yl]-5-(hydroxymethyl)-4,5-dihydro-1,2-oxazol-3-yl}pyrrolidin-3-yl]methanesulfonamide]: the “OX2R agonist activity (3 μM, %)” value stood at 92%. Turning to `Cc1cnc(C2(CO)CC(N3C[C@@H](NS(C)(=O)=O)C(F)(F)C3)=NO2)c(-c2c(F)cc(F)cc2F)c1` (stereo partly drawn) [Example 16, N-[(3R)-4,4-difluoro-1-{5-(hydroxymethyl)-5-[5-methyl-3-(2,4,6-trifluorophenyl)pyridin-2-yl]-4,5-dihydro-1,2-oxazol-3-yl}pyrrolidin-3-yl]methanesulfonamide], the “OX2R agonist activity (3 μM, %)” value is reported as 99%.

For the molecule `Cc1cnc(C2CC(N3CC(F)(F)C3CNS(C)(=O)=O)=NO2)c(-c2c(F)cc(F)cc2F)c1` (stereo not drawn) [Example 17, N-[(3,3-difluoro-1-{5-[5-methyl-3-(2,4,6-trifluorophenyl)pyridin-2-yl]-4,5-dihydro-1,2-oxazol-3-yl}azetidin-2-yl)methyl]methanesulfonamide], the “OX2R agonist activity (3 μM, %)” value was 80%. Under `CS(=O)(=O)N[C@@H]1CN(C2=NOC(c3ncc(C4CC4)cc3-c3c(F)cc(F)cc3F)C2)CC1(F)F` (stereo partly drawn) [Example 18, N-[(3R)-1-{5-[5-cyclopropyl-3-(2,4,6-trifluorophenyl)pyridin-2-yl]-4,5-dihydro-1,2-oxazol-3-yl}-4,4-difluoropyrrolidin-3-yl]methanesulfonamide] stands 103%.

As for `Cc1cnc(C2CC([C@@H]3CC[C@H](NS(C)(=O)=O)C3)=NO2)c(-c2c(F)cc(F)cc2F)c1` (stereo partly drawn) [Example 19, N-[(1S,3R)-3-{5-[5-methyl-3-(2,4,6-trifluorophenyl)pyridin-2-yl]-4,5-dihydro-1,2-oxazol-3-yl}cyclopentyl]methanesulfonamide], the “OX2R agonist activity (3 μM, %)” value worked out at 92%.

With `Cc1cnc(C2CC(O[C@H]3C[C@@H](NS(C)(=O)=O)C3)=NO2)c(-c2c(F)cccc2F)c1` (stereo partly drawn) [Example 20, N-[(1s,3s)-3-({5-[3-(2,6-difluorophenyl)-5-methylpyridin-2-yl]-4,5-dihydro-1,2-oxazol-3-yl}oxy)cyclobutyl]methanesulfonamide], the “OX2R agonist activity (3 μM, %)” value worked out at 65%. The result for `Cc1cnc(C2CC(N3C[C@@H](NS(C)(=O)=O)C(F)(F)C3)=NO2)c(-c2c(F)cccc2F)c1` (stereo partly drawn) [Example 21, N-[(3R)-1-{5-[3-(2,6-difluorophenyl)-5-methylpyridin-2-yl]-4,5-dihydro-1,2-oxazol-3-yl}-4,4-difluoropyrrolidin-3-yl]methanesulfonamide] reads 100%; that for `CCS(=O)(=O)N[C@@H]1CN(C2=NO[C@H](c3ncc(C)cc3-c3c(F)cccc3F)C2)CC1(F)F` [Example 22, N-[(3R)-1-{(5S)-5-[3-(2,6-difluorophenyl)-5-methylpyridin-2-yl]-4,5-dihydro-1,2-oxazol-3-yl}-4,4-difluoropyrrolidin-3-yl]ethanesulfonamide], 102%; that for `Cc1cnc(C2CC(C3CC(NS(C)(=O)=O)C3)=NO2)c(-c2c(F)cc(F)cc2F)c1` (stereo not drawn) [Example 23, N-[(1s,3s)-3-{5-[5-methyl-3-(2,4,6-trifluorophenyl)pyridin-2-yl]-4,5-dihydro-1,2-oxazol-3-yl}cyclobutyl]methanesulfonamide], 42%. Under `Cc1cnc(C2CC([C@H]3CC[C@@H](NS(C)(=O)=O)CC3)=NO2)c(-c2c(F)cc(F)cc2F)c1` (stereo partly drawn) [Example 24, N-[(1s,4s)-4-{5-[5-methyl-3-(2,4,6-trifluorophenyl)pyridin-2-yl]-4,5-dihydro-1,2-oxazol-3-yl}cyclohexyl]methanesulfonamide] stands 20%; under `Cc1cnc(C2CC([C@H]3CC[C@H](NS(C)(=O)=O)C3)=NO2)c(-c2c(F)cc(F)cc2F)c1` (stereo partly drawn) [Example 25, N-[(1S,3S)-3-{5-[5-methyl-3-(2,4,6-trifluorophenyl)pyridin-2-yl]-4,5-dihydro-1,2-oxazol-3-yl}cyclopentyl]methanesulfonamide], 88%; under `CCS(=O)(=O)NC[C@@H]1CCCN1C1=NOC(c2ncc(C)cc2-c2c(F)cccc2F)C1` (stereo partly drawn) [Example 26, N-{[(2S)-1-{5-[3-(2,6-difluorophenyl)-5-methylpyridin-2-yl]-4,5-dihydro-1,2-oxazol-3-yl}pyrrolidin-2-yl]methyl}ethanesulfonamide], 42%. The result for `Cc1cnc(C2CC(N(C)[C@H]3C[C@@H](NS(C)(=O)=O)C3)=NO2)c(-c2c(F)cccc2F)c1` (stereo partly drawn) [Example 27, N-{(1s,3s)-3-[{5-[3-(2,6-difluorophenyl)-5-methylpyridin-2-yl]-4,5-dihydro-1,2-oxazol-3-yl}(methyl)amino]cyclobutyl}methanesulfonamide] reads 77%; that for `Cc1cnc(C2CC(N3CC[C@@H](NS(C)(=O)=O)C(F)(F)CC3)=NO2)c(-c2c(F)cccc2F)c1` (stereo partly drawn) [Example 28, N-[(4R)-1-{5-[3-(2,6-difluorophenyl)-5-methylpyridin-2-yl]-4,5-dihydro-1,2-oxazol-3-yl}-5,5-difluoroazepan-4-yl]methanesulfonamide], 93%; that for `Cc1cnc([C@@H]2CC(N3CC[C@H](NS(C)(=O)=O)C3)=NO2)c(-c2c(F)cccc2F)c1` [Example 29, N-[(3S)-1-{(5S)-5-[3-(2,6-difluorophenyl)-5-methylpyridin-2-yl]-4,5-dihydro-1,2-oxazol-3-yl}pyrrolidin-3-yl]methanesulfonamide], 96%. For `Cc1cnc([C@@H]2CC(N3CC[C@H](NS(=O)(=O)C4(F)CC4)C3)=NO2)c(-c2c(F)cccc2F)c1` [Example 30, N-[(3S)-1-{(5S)-5-[3-(2,6-difluorophenyl)-5-methylpyridin-2-yl]-4,5-dihydro-1,2-oxazol-3-yl}pyrrolidin-3-yl]-1-fluorocyclopropane-1-sulfonamide], the “OX2R agonist activity (3 μM, %)” value turned out to be 104%.

For the molecule `Cc1cnc([C@@H]2CC(N3C[C@@H](NS(=O)(=O)C(F)F)C(F)(F)C3)=NO2)c(-c2c(F)cccc2F)c1` [Example 31, N-[(3R)-1-{(5S)-5-[3-(2,6-difluorophenyl)-5-methylpyridin-2-yl]-4,5-dihydro-1,2-oxazol-3-yl}-4,4-difluoropyrrolidin-3-yl]-1,1-difluoromethanesulfonamide], the “OX2R agonist activity (3 μM, %)” value turned out to be 104%.
